Test results taken from the NIST ThermoML archive (doi:10.1021/acs.jced.6b00790).

Assay: mean ionic activity coefficient (dimensionless); mn = molality of the nth substance listed, in mol/kg
Conditions: 298.15 K, 100 kPa, Liquid, potentiometry

O=[N+]([O-])[O-].[Na+] [sodium nitrate] + O
Conditions	mean ionic activity coefficient
m1 = 0.01	0.893
m1 = 0.05	0.811
m1 = 0.1	0.766
m1 = 0.2001	0.697
m1 = 0.2999	0.663
m1 = 0.4	0.638
m1 = 0.5001	0.616
m1 = 0.5999	0.576
m1 = 0.7001	0.565
m1 = 0.7998	0.545
m1 = 0.9	0.518
m1 = 0.9999	0.502
